# Test system: HIV-1 pseudovirus pseudotyped with HXB2 Env
# Assay: microbe, parasite or virus in culture
# Format: cell-based
# Settings: Human immunodeficiency virus 1, HXB2, TZM-bl, TZM-bl cells, HIV-1 pseudovirus with HXB2 Env
row,Compound,IC50 [µM]
1,"Cc1nc(C(NC(=O)c2ccc(-c3ccc(Cl)c(F)c3)[nH]2)C2CCCCN2)sc1CO (single isomer, unassigned) [Compound 20]",3 ± 0.4
2,"Cc1ccc(-c2ccc(C(=O)NC(c3nc(C)c(CO)s3)C3CCCCN3)[nH]2)cc1F (single isomer, unassigned) [Compound 22]",2.7 ± 0.2
3,"Cc1ccc(-c2ccc(C(=O)NC(c3nc(C)c(CCO)s3)C3CCCCN3)[nH]2)cc1F (single isomer, unassigned) [Compound 24]",10.6 ± 0.1
4,"Cc1nc(C(NC(=O)c2ccc(-c3ccc(Cl)c(F)c3)[nH]2)C2CCCCN2)sc1CCO (single isomer, unassigned) [Compound 26]",7.5 ± 0.2
5,"Cc1nc(C(NC(=O)c2ccc(-c3ccc(Cl)cc3)[nH]2)C2CCCCN2)sc1CCO (single isomer, unassigned) [Compound 28]",8.9 ± 0.2
6,"Cc1ccc(-c2ccc(C(=O)NC(c3nc(C)c(CCCO)s3)C3CCCCN3)[nH]2)cc1F (single isomer, unassigned) [Compound 30]",11.2 ± 0.7
7,"Cc1nc(C(NC(=O)c2ccc(-c3ccc(Cl)c(F)c3)[nH]2)C2CCCCN2)sc1CCCO (single isomer, unassigned) [Compound 31]",5.1 ± 0.7
8,"Cc1nc(C(NC(=O)c2ccc(-c3ccc(Cl)cc3)[nH]2)C2CCCCN2)[nH]c1CO (single isomer, unassigned) [Compound 33]",14 ± 0.1
9,"Cc1nc(C(NC(=O)c2ccc(-c3ccc(Cl)c(F)c3)[nH]2)C2CCCCN2)[nH]c1CO (single isomer, unassigned) [Compound 35]",9 ± 0.2
10,"Cc1ccc(-c2ccc(C(=O)NC(CN)c3nc(C)c(CO)s3)[nH]2)cc1F (single isomer, unassigned) [Compound 43]",1.7 ± 0.4
11,"Cc1nc(C(CNC(=N)N)NC(=O)c2ccc(-c3ccc(Cl)cc3)[nH]2)sc1CO (single isomer, unassigned) [Compound 45]",> 37
12,"Cc1nc(C(CNC(=N)N)NC(=O)c2ccc(-c3ccc(Cl)c(F)c3)[nH]2)sc1CO (single isomer, unassigned) [Compound 48]",> 27
13,"Cc1ccc(-c2ccc(C(=O)NC(CNC(=N)N)c3nc(C)c(CO)s3)[nH]2)cc1F (single isomer, unassigned) [Compound 49]",> 28
14,"Cc1nc(C(CN)NC(=O)c2ccc(-c3ccc(Cl)c(F)c3)[nH]2)sc1CO (single isomer, unassigned) [Compound 51]",1.4 ± 0.5
15,O=C(NC(c1ccccc1)c1ccc[nH]1)c1ccc(-c2ccc(Cl)cc2)[nH]1 (stereo not drawn) [Compound 1],16.4 ± 1.5
16,Nc1nc(CNC(=O)c2ccc(-c3ccc(Cl)cc3)[nH]2)n[nH]1 [Compound 2],> 63
17,N=C(N)Nc1ccc(CC(NC(=O)c2ccc(-c3ccc(Cl)cc3)[nH]2)C(=O)N2CCOCC2)cc1 (stereo not drawn) [Compound 3],> 36
18,N=C(N)NCCCC(NC(=O)c1ccc(-c2ccc(Cl)cc2)[nH]1)C(=O)NCCO (stereo not drawn) [Compound 4],> 44
19,N=C(N)NCCCC(NC(=O)c1ccc(-c2ccccc2)[nH]1)C(=O)NCCO (stereo not drawn) [Compound 5],> 47
20,CS(=O)(=O)NCCNC(=O)C(CCCNC(=N)N)NC(=O)c1ccc(-c2ccc(Cl)cc2)[nH]1 (stereo not drawn) [Compound 6],> 37
21,CS(=O)(=O)NCCNC(=O)C(CCCNC(=N)N)NC(=O)c1ccc(-c2ccccc2)[nH]1 (stereo not drawn) [Compound 7],> 43
22,CN1CCN(NC(=O)C(CCCNC(=N)N)NC(=O)c2ccc(-c3ccc(Cl)cc3)[nH]2)CC1 (stereo not drawn) [Compound 8],> 42

row,Compound,IC50 [µM]
1,N=C(N)NCCCC(NC(=O)c1ccc(-c2ccc(Cl)cc2)[nH]1)C(=O)NN1CCOCC1 (stereo not drawn) [Compound 9],> 40
2,N=C(N)NCCCC(NC(=O)c1ccc(-c2ccccc2)[nH]1)C(=O)NN1CCOCC1 (stereo not drawn) [Compound 10],> 43
3,Cc1n[nH]c(C)c1CNC(=O)c1ccc(-c2ccc(Cl)cc2)[nH]1 [Compound 11],~60
4,Cc1nccn1Cc1ccc(CNC(=O)c2ccc(-c3ccc(Cl)cc3)[nH]2)o1 [Compound 12],14.1 ± 1.3
5,CCN(CC)Cc1ccc(OC)c(CNC(=O)c2ccc(-c3ccc(Cl)cc3)[nH]2)c1 [Compound 13],4.3 ± 0.1
6,NS(=O)(=O)c1ccc(CCNC(=O)c2ccc(-c3ccc(Cl)cc3)[nH]2)cc1 [Compound 14],> 50
7,Cc1nc(C(NC(=O)c2ccc(-c3ccc(Cl)cc3)[nH]2)C2CCCCN2)sc1CCCO (stereo not drawn) [Compound 32],7.6 ± 0.8
8,CNc1cc(NC(=O)c2ccc(-c3ccc(F)c(Cl)c3)[nH]2)nc(NC(=N)N)n1 [Compound 53],> 36
9,Cc1nc(C(CN)NC(=O)c2cc3cc(Cl)ccc3[nH]2)sc1CO (stereo not drawn) [Compound 60],> 40
10,Cc1nc(C(CN)NC(=O)c2cc3ccccc3[nH]2)sc1CO (stereo not drawn) [Compound 62],> 60
11,CC(=O)NCC(NC(=O)c1ccc(-c2ccc(Cl)c(F)c2)[nH]1)c1nc(C)c(CO)s1 (stereo not drawn) [Compound 64],~40
12,Cc1nc(C(CN(C)C)NC(=O)c2ccc(-c3ccc(Cl)cc3)[nH]2)sc1CO (stereo not drawn) [Compound 66],16.5 ± 3.4
13,CC(=O)NCC(NC(=O)c1ccc(-c2ccc(Cl)c(F)c2)[nH]1)c1nc(C)c(COC(C)=O)s1 (stereo not drawn) [Compound 70],> 40
14,Cc1nc(C(CN(C)C)NC(=O)c2ccc(-c3ccc(Cl)c(F)c3)[nH]2)sc1CO (stereo not drawn) [Compound 71],3.6 ± 1
15,Cc1cc(-c2ccc(Cl)cc2)[nH]c1C(=O)NC(CN)c1nc(C)c(CO)s1 (stereo not drawn) [Compound 73],2.2 ± 0.8
16,Cc1ccc(-c2ccc(C(=O)NC(CCN(C)C)c3nc(C)c(CO)s3)[nH]2)cc1F (stereo not drawn) [Compound 76],11 ± 2.5
17,Cc1nc(C(CCN(C)C)NC(=O)c2ccc(-c3ccc(Cl)cc3)[nH]2)sc1CO (stereo not drawn) [Compound 80],14.2 ± 0.7
18,Cc1nc(C(CCN)NC(=O)c2ccc(-c3ccc(Cl)c(F)c3)[nH]2)sc1CO (stereo not drawn) [Compound 90],4.1 ± 1.5
19,NCC(NC(=O)c1ccc(-c2ccc(Cl)c(F)c2)[nH]1)c1ncc(CO)s1 (stereo not drawn) [Compound 94],1.1 ± 0.8
20,Cc1nc(C(CN)NC(=O)c2cnc(-c3ccc(Cl)cc3)[nH]2)sc1CO (stereo not drawn) [Compound 97],> 51
21,Cc1nc(C(CN)NC(=O)c2ncc(-c3ccc(Cl)cc3)[nH]2)sc1CO (stereo not drawn) [Compound 99],34.9 ± 3
22,Cc1cc(C(=O)NC(CN)c2nc(C)c(CO)s2)[nH]c1-c1ccc(Cl)cc1 (stereo not drawn) [Compound 101],3.6 ± 0.4

# Same assay, conditions: TZM-bl cells, HIV-1 pseudovirus with HXB2 Env
row,Compound,IC50 [µM]
1,Cc1nc(C(CN)NC(=O)c2cc3cc(Cl)ccc3[nH]2)sc1CO (stereo not drawn) [Compound 61],~50
2,Cc1nc(C(CN)NC(=O)c2cc3ccccc3[nH]2)sc1CO (stereo not drawn) [Compound 63],> 60
3,CC(=O)NCC(NC(=O)c1ccc(-c2ccc(Cl)c(F)c2)[nH]1)c1nc(C)c(CO)s1 (stereo not drawn) [Compound 65],~40
4,Cc1nc(C(CN)NC(=O)c2cnc(-c3ccc(Cl)cc3)[nH]2)sc1CO (stereo not drawn) [Compound 98],> 51

# Test system: panel of HIV-1 ENV-pseudoviruses (subtype A, A/D, A2/D, A/E, A/G, B, C and D)
# Assay: microbe, parasite or virus in culture
# Format: cell-based
# Settings: Human immunodeficiency virus 1, TZM-bl, read-out: IC50 (μM) ± S.D., subtype B, ENV B41
row,Compound,IC50 [µM]
1,"Cc1nc(C(CN)NC(=O)c2ccc(-c3ccc(Cl)cc3)[nH]2)sc1CO (single isomer, unassigned) [Compound 40]",0.28 ± 0.03

# Same assay, conditions: Human immunodeficiency virus 1, TZM-bl, read-out: IC50 (μM) ± S.D., subtype B, NIH # 11024, ENV AC10.0, clone 29
row,Compound,IC50 [µM]
1,"Cc1nc(C(CN)NC(=O)c2ccc(-c3ccc(Cl)cc3)[nH]2)sc1CO (single isomer, unassigned) [Compound 40]",0.29 ± 0.03

# Same assay, conditions: Human immunodeficiency virus 1, TZM-bl, read-out: IC50 (μM) ± S.D., subtype B, NIH # 11578, ENV pWEAUd15.410.5017
row,Compound,IC50 [µM]
1,"Cc1nc(C(CN)NC(=O)c2ccc(-c3ccc(Cl)cc3)[nH]2)sc1CO (single isomer, unassigned) [Compound 40]",0.28 ± 0.04

# Same assay, conditions: subtype A, ENV BG505-T332N; read-out: IC50 (μM) ± S.D.
row,Compound,IC50 [µM]
1,"Cc1nc(C(CN)NC(=O)c2ccc(-c3ccc(Cl)cc3)[nH]2)sc1CO (single isomer, unassigned) [Compound 40]",0.33 ± 0.04

# Test system: PBMC
# Assay: Cytotoxicity in PBMC (XTT)
# Format: cell-based
# Settings: 7 days
# Method: For the PBMC toxicity assay we used 5×10^5 cells/ml and the cytotoxicity of the compounds was measured after 7 days of incubation as previously reported^8. Following the addition of XTT the soluble intracellular formazan was quantitated colorimetrically at 450 nm 4 h later. The percent of cytotoxicity and the CC50 values were calculated as above. (See Table 4)
row,Compound,CC50 [µM]
1,Cc1nc(C(NC(=O)C(=O)Nc2ccc(Cl)cc2)C2CCCCN2)sc1CO (stereo not drawn) [NBD-09027],> 160

# Test system: not listed separately
# Assay: Cytotoxicity in TZM-bl cells (XTT)
# Format: cell-based
# Settings: human
# Method: (§1) The cytotoxicity of test compounds in TZM-bl cells was also measured by the XTT method described previously^7. […] The soluble intracellular formazan was quantitated colorimetrically at 450 nm 4 h later. The percent of cytotoxicity and the CC50 values were calculated as above. (See Table 4)
row,Compound,CC50 at 3 days [µM]
1,Cc1nc(C(CN)NC(=O)c2cc3cc(Cl)ccc3[nH]2)sc1CO (stereo not drawn) [Compound 60],~47
2,Cc1nc(C(CN)NC(=O)c2cc3ccccc3[nH]2)sc1CO (stereo not drawn) [Compound 62],> 60

# Test system: TZM-bl cells
# Assay: Cytotoxicity in TZM-bl cells (XTT)
# Format: cell-based
# Settings: 3 days
# Method: as §1
row,Compound,CC50 [µM]
1,Cc1nc(C(CN)NC(=O)c2cc3cc(Cl)ccc3[nH]2)sc1CO (stereo not drawn) [Compound 61],> 55
2,Cc1nc(C(CN)NC(=O)c2cc3ccccc3[nH]2)sc1CO (stereo not drawn) [Compound 63],> 60

# Source: patent publication US10576059B2, “Substituted phenylpyrrolecarboxamides with therapeutic activity in HIV” (New York Blood Center, Inc., priority 2014, dated 2020)
